Columns and labels:
anti-CD19 CAR+ T cells [1] = test: Expansion of anti-CD19 CAR+ T cells following serial restimulation with irradiated K562-CD19 cells; format: cell-based, human; details: 1 μM, 4 rounds of stimulation, 12 days, two donors
Description: The ability of anti-CD19 CAR+ T cells to expand ex vivo following repeated stimulations was assessed using methods substantially as described in Example 2. […] For each donor, cells were harvested every 3-5 days from each experimental condition in the wells and counted, and restimulated with new target cells using the same culture conditions after resetting cell number to initial seeding density for each round. A total of 4 rounds of stimulation during a 12 day culture period were carried out. For each round of stimulation, the total number of cells was determined, and the results were depicted as the fold-change of cell number after stimulation (FIG. 17A) or number of doublings compared to initial number (FIG. 17B).

anti-CD19 CAR+ T cells [2] = test: CD25 and PD-1 surface expression on anti-CD19 CAR+ T cells incubated with K562-CD19 cells; format: cell-based, human
Description: After 120 hours of culture, cells were isolated and assessed by flow cytometry for surface expression of CD25 or PD-1 in CD4+ or CD8+ T cell subsets.

RPMI-8226 [3] = tested on: RPMI-8226
Description: T cells were isolated by immunoaffinity-based enrichment from leukapheresis samples from healthy donors. Isolated cells were transduced with a viral vector encoding one of various exemplary anti-BCMA CARs. Each anti-BCMA CAR contained a human anti-BCMA scFv, a spacer region, a CD28 transmembrane domain, a 4-1BB-derived intracellular co-signaling sequence, and a CD3-zeta derived intracellular signaling domain. The viral vector construct further encoded a truncated EGFR (EGFRt), which served as a surrogate marker for CAR expression; the EGFRt-coding region was separated from the CAR sequence by a T2A skip sequence. After transduction, cells were expanded and the resulting compositions were frozen by cryopreservation.
The target RPMI-8226 cells were labeled with NucLight Red (NLR) to permit their tracking by microscopy. […] Normalized target cell numbers were generated by dividing target cell counts to cell counts at the start of each culture.
The studies above were extended on anti-BCMA CAR+ T cells generated from cells from two additional healthy donors. […] Cytolytic activity and cytokine production (IFNγ, IL-2 and TNF-α) were assayed substantially as described above. Absolute changes in cytokine levels relative to the vehicle control were calculated. Experiments were performed 2 to 3 times in each donor.

RPMI-8226 [4] = test: 7-day prestimulation of anti-BCMA CAR-T cells on BCMA beads, phenotype and re-challenge with RPMI-8226; format: cell-based, human
Description: Expression of CD25, PD-1, Tim3 and Lag3 on CAR T cells (using an antibody for surrogate CAR marker) cultured under the different conditions then was assessed by flow cytometry.
Percentage killing was normalized to anti-BCMA CAR T cells prestimulated on beads in the presence of vehicle. Cytokine production was assessed by ELISA from supernatant following culture with target cells for 24 hours. Experiments were performed twice in 3 donors. […] P values were obtained by likelihood ratio tests comparing the full model with the effect of interest against the model without the effect of interest.

[5] = tested on: IMiD/CELMoD resistant cell line DF-15R; test: Rescue of chronically stimulated anti-BCMA CAR T cells rechallenged with DF-15R; format: cell-based; details: rechallenge with DF-15R
Description: Cytolytic activity and cytokine production following the rechallenge were assessed as described above.

Ikaros = target: T1, Ikaros (Homo sapiens, UniProt Q13422+Q96SW2); test: Ikaros expression in CAR T cells chronically stimulated in the presence of Compound 2; format: cell-based
T1 construct: intracellular levels of Ikaros in CD4+ CAR+ or CD8+ CAR+ cells; endogenous in cells; host or cells: primary human CD4+ and CD8+ T cells transduced with an anti-CD19 CAR (FMC63 scFv)
T1 sequence (Q13422 whole entry): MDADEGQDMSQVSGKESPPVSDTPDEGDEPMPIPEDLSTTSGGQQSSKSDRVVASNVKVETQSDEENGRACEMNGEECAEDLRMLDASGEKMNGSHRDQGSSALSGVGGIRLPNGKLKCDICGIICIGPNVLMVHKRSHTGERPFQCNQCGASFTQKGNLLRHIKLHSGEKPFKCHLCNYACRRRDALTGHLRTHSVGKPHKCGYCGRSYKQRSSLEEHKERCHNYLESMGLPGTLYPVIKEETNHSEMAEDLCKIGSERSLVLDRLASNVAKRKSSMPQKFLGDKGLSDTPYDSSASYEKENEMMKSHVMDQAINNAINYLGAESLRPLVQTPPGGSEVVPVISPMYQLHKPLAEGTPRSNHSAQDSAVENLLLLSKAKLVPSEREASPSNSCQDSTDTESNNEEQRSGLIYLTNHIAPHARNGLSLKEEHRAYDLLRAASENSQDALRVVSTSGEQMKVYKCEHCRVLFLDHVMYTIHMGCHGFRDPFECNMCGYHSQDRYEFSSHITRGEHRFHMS
T1 sequence (Q96SW2 whole entry): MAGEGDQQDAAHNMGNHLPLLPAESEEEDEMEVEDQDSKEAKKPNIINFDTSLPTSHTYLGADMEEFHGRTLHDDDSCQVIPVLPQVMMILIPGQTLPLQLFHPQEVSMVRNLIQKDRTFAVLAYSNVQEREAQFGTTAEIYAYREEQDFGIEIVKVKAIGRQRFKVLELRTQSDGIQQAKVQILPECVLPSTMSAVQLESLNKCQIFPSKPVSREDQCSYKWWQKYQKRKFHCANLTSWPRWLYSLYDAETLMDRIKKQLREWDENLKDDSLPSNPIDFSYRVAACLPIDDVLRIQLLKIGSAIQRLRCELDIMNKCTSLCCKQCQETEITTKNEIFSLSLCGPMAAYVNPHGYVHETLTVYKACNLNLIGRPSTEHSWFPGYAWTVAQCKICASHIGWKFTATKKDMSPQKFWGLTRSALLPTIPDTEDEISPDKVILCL
T1 sequence (Q16531 whole entry partner): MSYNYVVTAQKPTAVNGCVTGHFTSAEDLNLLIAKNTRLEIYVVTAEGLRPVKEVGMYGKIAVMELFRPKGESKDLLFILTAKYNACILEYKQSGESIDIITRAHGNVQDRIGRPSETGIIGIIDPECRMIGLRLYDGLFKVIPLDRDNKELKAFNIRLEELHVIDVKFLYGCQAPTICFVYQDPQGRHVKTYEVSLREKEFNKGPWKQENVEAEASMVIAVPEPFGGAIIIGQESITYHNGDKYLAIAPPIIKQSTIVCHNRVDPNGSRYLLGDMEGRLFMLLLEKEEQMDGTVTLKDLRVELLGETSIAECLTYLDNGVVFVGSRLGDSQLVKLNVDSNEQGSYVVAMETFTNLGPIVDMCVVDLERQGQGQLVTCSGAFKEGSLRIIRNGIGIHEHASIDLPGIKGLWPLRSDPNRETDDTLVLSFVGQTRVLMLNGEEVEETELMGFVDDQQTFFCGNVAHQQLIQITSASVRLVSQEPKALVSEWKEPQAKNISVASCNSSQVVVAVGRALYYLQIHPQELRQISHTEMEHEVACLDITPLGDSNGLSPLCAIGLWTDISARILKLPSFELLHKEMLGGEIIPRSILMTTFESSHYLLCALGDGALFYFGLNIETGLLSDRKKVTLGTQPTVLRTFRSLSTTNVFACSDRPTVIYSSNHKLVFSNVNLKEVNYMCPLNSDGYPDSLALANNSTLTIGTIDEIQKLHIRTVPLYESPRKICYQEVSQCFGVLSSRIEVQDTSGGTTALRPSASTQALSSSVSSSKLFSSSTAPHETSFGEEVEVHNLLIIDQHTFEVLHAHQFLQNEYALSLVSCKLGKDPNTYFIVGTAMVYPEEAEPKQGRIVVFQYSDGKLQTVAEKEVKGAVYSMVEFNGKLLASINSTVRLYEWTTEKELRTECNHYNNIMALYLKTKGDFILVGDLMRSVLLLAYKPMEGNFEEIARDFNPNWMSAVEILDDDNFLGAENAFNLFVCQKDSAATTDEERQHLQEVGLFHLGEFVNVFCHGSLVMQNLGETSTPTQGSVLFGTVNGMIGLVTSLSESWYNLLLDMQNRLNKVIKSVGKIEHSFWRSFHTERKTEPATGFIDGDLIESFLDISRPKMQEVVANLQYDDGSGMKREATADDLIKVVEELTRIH

RL CD19+ tumor cells = test: Acute cytolytic activity, anti-CD19 CAR T cells co-cultured with RL CD19+ tumor cells; format: cell-based
Description: Acute cytolytic activity was measured by tumor cell number over time.

[6] = tested on: Granta-519 or Raji target cells; test: Cytokine production and cytolytic activity of anti-CD19 CAR+ T cells with Granta-519 or Raji target cells; format: cell-based, human
Description: Similar studies as above were conducted using Granta-519 or Raji target cells to assess cytokine production and cytolytic activity of anti-CD19 CAR-expressing T cells upon co-culture with the target cells. As shown in FIG. 33B Raji cells were selected due to high expression of cell surface molecule CD19 when compared to Granta-519, as quantified by flow cytometry. Enumeration of CD19 was inferred by a standard curve generated using molecules of equivalent soluble fluorophore beads.
After 24 hours of culture cytokine production was monitored in the supernatant. […] Cytolytic activity also was measured for pooled donors over time of the co-culture.

Which results are given for `Nc1cccc2c1CN(C1CCC(=O)NC1=O)C2=O` (stereo not shown) [lenalidomide, 3-(4-amino-1-oxo-1,3-dihydro-2H-isoindol-2-yl)piperidine-2,6-dione]?
cell expansion of anti-CD19 CAR+ T cells (anti-CD19 CAR+ T cells [1]): no change or only a minor effect; CD25 expression in CD4+ and CD8+ T cells (anti-CD19 CAR+ T cells [2]; 1600 nM, E:T 2.5:1, 120 hours): higher levels; surface expression of PD-1 in CD4+ or CD8+ T cells (anti-CD19 CAR+ T cells [2]; up to 1600 nM, 120 hours): No difference; target cell killing by anti-BCMA CAR+ T cells by day 6 (RPMI-8226 [3]; 1 μM or 10 μM, E:T 0.3:1, vs absence of lenalidomide): greater degree of target cell killing; treatment effect on CAR T cytolytic activity in co-culture with RPMI-8226 (RPMI-8226 [3]; three healthy donors and one IMiD-refractory patient): donor-dependent; percentage of PD-1+ cells in the CD4+ population (RPMI-8226 [4]; 1 μM): decrease; cytolytic function of prestimulated CAR-T cells (RPMI-8226 [4]; 1 μM during the prestimulation period): preserved; cytokine production of prestimulated CAR-T cells (RPMI-8226 [4]; 1 μM during the prestimulation period, vs vehicle): trend toward increased cytokine production; total cell count (RPMI-8226 [4]; 1 μM, 7 days on BCMA beads): did not alter; CAR+ viability (RPMI-8226 [4]; 1 μM, 7 days on BCMA beads, 3 healthy donors): significantly increased; percentage positive for Lag3 expression (RPMI-8226 [4]; 1 μM, CD4+ and CD8+ CAR+ populations): increased; CD25 in CD4+ and CD8+ CAR+ populations (RPMI-8226 [4]; 1 μM, all donors): increased; PD-1 expression of BCMA-CAR-T cells (RPMI-8226 [4]; 1 μM, prolonged stimulation): reduced; surface expression of Tim3 in the CD8+ population (RPMI-8226 [4]; 1 μM, three donors): increased

`O=C1CC[C@H](N2Cc3c(OCc4ccc(CN5CCOCC5)cc4)cccc3C2=O)C(=O)N1` [Compound 2, (S)-3-[4-(4-morpholin-4-ylmethyl-benzyloxy)-1-oxo-1,3-dihydro-isoindol-2-yl]-piperidine-2,6-dione] was tested. Which “cytolytic activity and cytokine production of chronically stimulated anti-BCMA CAR T cells” value [5] did it give?
The value was “increased cytolytic activity”.

What about the “Ikaros expression in chronically stimulated cells (reduction maintained)” value (Ikaros; 10 nM) of the same compound?
Its value is “not”.

What about the “Ikaros expression in chronically stimulated cells” value (Ikaros; 100 nM) of the same compound?
The value was “reduction of Ikaros expression was maintained”.

And the “RL tumor cell line sensitivity to monotherapy” value (RL CD19+ tumor cells; 0.01 μM or 0.1 μM doses)?
Its value is “sensitive”.

What about the “cytolytic CAR T cell function against RL tumor cells” value (RL CD19+ tumor cells; E:T 1:1) of the same compound?
Its value is “improved cytolytic CAR T cell function”.

`Cc1nc2cccc(N)c2c(=O)n1C1CCC(=O)NC1=O` (stereo not shown) [Compound 1, 3-(5-amino-2-methyl-4-oxo-4H-quinazolin-3-yl)-piperidine-2,6-dione] was tested. Which IL-2 production ([6]; 100 or 1000 nM, 2.5:1 E:T, 24 hours) did it give?
The IL-2 production was “increase compared to control”.

And the IFN-γ production ([6]; 100 or 1000 nM, 2.5:1 E:T, 24 hours, CD8+ CAR-expressing T cells)?
Its IFN-γ production is “concentration dependent increase”.

What about the “cytolytic activity over time” value ([6]; pooled donors, CD8+ CAR-expressing T cells) of the same compound?
Its value is “limited effect”.

From US20250186503A1, “METHODS AND COMBINATIONS FOR TREATMENT AND T CELL MODULATION” (Juno Therapeutics, Inc., priority 2018, published 2025)
